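Exposure lasted 48 hours, with cells grown in 96-well plates and compounds tested at five concentrations. The concentration for 50% growth inhibition is given as GI50.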 Active and inactive are the calls of the source. Rule as the data show it: active = GI50 up to about 1.1 µM and inactive = higher. Residues, ends and D or L forms follow the SMILES beside them. *: point of attachment. Boc = CC(C)(C)OC(=O)*
Legend:
Experiment in all cases: DTP human tumour cell line panel, 48 h
CCRF-CEM = test system: CCRF-CEM
DU-145 = test system: DU-145
EKVX = test system: EKVX
HCT-116 = test system: HCT-116
HL-60 = test system: HL-60
HOP-62 = test system: HOP-62
K562 = test system: K562
NCI-H226 = test system: NCI-H226
NCI-H23 = test system: NCI-H23
NCI/ADR-RES = test system: NCI/ADR-RES
OVCAR-4 = test system: OVCAR-4
OVCAR-5 = test system: OVCAR-5
RPMI-8226 = test system: RPMI-8226
RXF 393 = test system: RXF 393
SK-OV-3 = test system: SK-OV-3
SN12C = test system: SN12C
SNB-19 = test system: SNB-19
SW-620 = test system: SW-620
MDA-MB-231 = test system: MDA-MB-231
Malme-3M = test system: Malme-3M

Measured: GI50

CC1(C)C2CCC(N)(C2)C1N (stereo unspecified)
inactive: CCRF-CEM > 100 µM | DU-145 > 100 µM | EKVX > 100 µM | HCT-116 > 100 µM | HL-60 22.3 µM | HOP-62 > 100 µM | K562 > 100 µM | NCI-H226 > 100 µM | NCI-H23 > 100 µM | NCI/ADR-RES > 100 µM | OVCAR-4 > 100 µM | OVCAR-5 > 100 µM | RPMI-8226 > 100 µM | RXF 393 > 100 µM | SK-OV-3 > 100 µM | SN12C > 100 µM | SNB-19 > 100 µM | SW-620 > 100 µM

Cc1nc2c(=O)n(-c3ccccc3)c(=O)n(-c3ccccc3)c2o1
inactive: CCRF-CEM > 100 µM | EKVX > 100 µM | HCT-116 > 100 µM | HOP-62 > 100 µM | K562 > 100 µM | MDA-MB-231 > 100 µM | Malme-3M > 100 µM | NCI-H226 > 100 µM | NCI-H23 > 100 µM | NCI/ADR-RES > 100 µM | OVCAR-4 > 100 µM | OVCAR-5 > 100 µM | RPMI-8226 > 100 µM | RXF 393 > 100 µM | SK-OV-3 > 100 µM | SN12C > 100 µM | SNB-19 > 100 µM | SW-620 > 100 µM

NC(=S)N/N=C(/CCN1CCCC1)CC(C1=C(O)C2=CCCCC2OC1=O)c1ccccc1 (stereo unspecified)
inactive: CCRF-CEM 80 µM | EKVX > 100 µM | HCT-116 > 100 µM | HL-60 > 100 µM | HOP-62 > 100 µM | K562 > 100 µM | Malme-3M > 100 µM | NCI-H226 > 100 µM | NCI-H23 > 100 µM | OVCAR-4 > 100 µM | OVCAR-5 > 100 µM | RPMI-8226 > 100 µM | RXF 393 > 100 µM | SK-OV-3 > 100 µM | SN12C > 100 µM | SNB-19 > 100 µM | SW-620 37.8 µM

[N-]=[N+]=Nc1c(N2CCOCC2)c(Cl)nc2ccccc12
inactive: CCRF-CEM > 100 µM | EKVX 9.55 µM | HCT-116 39.5 µM | HL-60 66.1 µM | HOP-62 58.6 µM | K562 37.6 µM | MDA-MB-231 23.1 µM | Malme-3M 41.5 µM | NCI-H226 30.3 µM | NCI-H23 30.7 µM | NCI/ADR-RES 26.4 µM | OVCAR-4 33.7 µM | OVCAR-5 > 100 µM | RPMI-8226 74 µM | RXF 393 64.6 µM | SK-OV-3 > 100 µM | SN12C 47.8 µM | SNB-19 > 100 µM | SW-620 72.3 µM

c1ccc2c(c1)ccc1nc3ccccn3c12
inactive: CCRF-CEM > 100 µM | DU-145 > 100 µM | EKVX 68.5 µM | HL-60 > 100 µM | HOP-62 > 100 µM | K562 > 100 µM | Malme-3M > 100 µM | NCI-H226 > 100 µM | NCI-H23 > 100 µM | NCI/ADR-RES > 100 µM | OVCAR-5 > 100 µM | RPMI-8226 > 100 µM | RXF 393 > 100 µM | SK-OV-3 35.2 µM | SN12C > 100 µM | SNB-19 > 100 µM | SW-620 > 100 µM

COC(=O)CN(CC(=O)NCCNC(=O)OC(C)(C)C)C1CCCCC1N(CC(=O)OC)CC(=O)OC (stereo unspecified)
inactive: CCRF-CEM > 100 µM | DU-145 > 100 µM | EKVX > 100 µM | HCT-116 > 100 µM | HL-60 > 100 µM | HOP-62 > 100 µM | K562 > 100 µM | MDA-MB-231 > 100 µM | Malme-3M > 100 µM | NCI-H226 48 µM | NCI-H23 > 100 µM | NCI/ADR-RES > 100 µM | OVCAR-5 > 100 µM | RPMI-8226 > 100 µM | SK-OV-3 > 100 µM | SN12C > 100 µM | SNB-19 > 100 µM | SW-620 > 100 µM

COc1cc2c(cc1NC(=O)c1ccccc1)c1c(n2S(=O)(=O)c2ccccc2)CCN(S(=O)(=O)c2ccccc2)C1
inactive: CCRF-CEM > 100 µM | DU-145 > 100 µM | HCT-116 > 100 µM | HL-60 > 100 µM | HOP-62 > 100 µM | K562 > 100 µM | NCI-H226 > 100 µM | NCI-H23 > 100 µM | NCI/ADR-RES > 100 µM | OVCAR-4 > 100 µM | OVCAR-5 > 100 µM | RPMI-8226 > 100 µM | RXF 393 > 100 µM | SK-OV-3 > 100 µM | SNB-19 > 100 µM | SW-620 > 100 µM

Nc1c(-c2nc3ccccc3[nH]2)sc(=S)n1-c1ccccc1
inactive: CCRF-CEM 26.1 µM | EKVX 55.2 µM | HCT-116 > 100 µM | HL-60 > 100 µM | HOP-62 > 100 µM | K562 53.8 µM | Malme-3M 70.8 µM | NCI-H226 > 100 µM | NCI-H23 > 100 µM | OVCAR-4 > 100 µM | OVCAR-5 > 100 µM | RPMI-8226 34 µM | RXF 393 46.9 µM | SK-OV-3 > 100 µM | SN12C > 100 µM | SNB-19 > 100 µM | SW-620 > 100 µM

O=[N+]([O-])c1ccc(C2=Nn3c(nnc3-c3ccccc3)SC2)o1
inactive: CCRF-CEM 3.6 µM | EKVX 46.8 µM | HCT-116 17.6 µM | HL-60 15.3 µM | HOP-62 44.3 µM | K562 20.4 µM | Malme-3M 24.1 µM | NCI-H226 58.6 µM | NCI-H23 20.6 µM | OVCAR-4 19.6 µM | OVCAR-5 29.6 µM | RPMI-8226 5.81 µM | RXF 393 19.3 µM | SK-OV-3 > 100 µM | SN12C 15.7 µM | SNB-19 85.5 µM | SW-620 18 µM

CCOc1ccc(N/C(=C(/C(Cl)=C(/Cl)N2CCCCC2)[N+](=O)[O-])n2nnc3ccccc32)cc1
inactive: DU-145 19.2 µM | EKVX 19.3 µM | HCT-116 16.7 µM | HOP-62 21.4 µM | K562 17.4 µM | MDA-MB-231 20.9 µM | Malme-3M 21.7 µM | NCI-H226 27.9 µM | NCI-H23 15.3 µM | NCI/ADR-RES 19.3 µM | OVCAR-5 16.7 µM | RPMI-8226 14.7 µM | SK-OV-3 28.9 µM | SN12C 19.3 µM | SNB-19 19.9 µM

COc1ccc(C(=O)/C=C2\Nc3cccnc3N\C2=C/C(=O)c2ccc(OC)cc2)cc1
inactive: CCRF-CEM > 100 µM | DU-145 19.9 µM | EKVX 20.8 µM | HCT-116 15.2 µM | HL-60 > 100 µM | HOP-62 4.94 µM | K562 57.9 µM | MDA-MB-231 13.5 µM | Malme-3M 11.7 µM | NCI-H226 4.8 µM | NCI-H23 13.5 µM | NCI/ADR-RES 17.4 µM | OVCAR-4 2.67 µM | OVCAR-5 42.3 µM | RPMI-8226 42.2 µM | SK-OV-3 13 µM | SN12C 12.2 µM | SNB-19 18.7 µM

CC(=O)Nc1[nH]n(C)c(=O)c1-c1nnc(C)s1
inactive: CCRF-CEM > 100 µM | EKVX > 100 µM | HCT-116 > 100 µM | HL-60 > 100 µM | HOP-62 > 100 µM | K562 > 100 µM | Malme-3M > 100 µM | NCI-H226 > 100 µM | NCI-H23 > 100 µM | OVCAR-4 > 100 µM | OVCAR-5 > 100 µM | RPMI-8226 > 100 µM | RXF 393 > 100 µM | SK-OV-3 > 100 µM | SN12C > 100 µM | SNB-19 > 100 µM | SW-620 > 100 µM

COc1cc(OC)nc(-n2c(N)c(C#N)c3ccc([N+](=O)[O-])cc3c2=O)n1
inactive: CCRF-CEM > 100 µM | DU-145 > 100 µM | EKVX > 100 µM | HCT-116 > 100 µM | HL-60 > 100 µM | HOP-62 > 100 µM | MDA-MB-231 > 100 µM | NCI-H23 > 100 µM | NCI/ADR-RES > 100 µM | OVCAR-4 > 100 µM | OVCAR-5 > 100 µM | RPMI-8226 > 100 µM | SN12C > 100 µM | SNB-19 > 100 µM | SW-620 > 100 µM

CNC(=O)OCc1nc([S+](C)[O-])n(C)c1COC(=O)NC (stereo unspecified)
inactive: CCRF-CEM > 100 µM | EKVX > 100 µM | HCT-116 > 100 µM | HL-60 > 100 µM | HOP-62 > 100 µM | K562 > 100 µM | Malme-3M > 100 µM | NCI-H226 > 100 µM | NCI-H23 > 100 µM | NCI/ADR-RES > 100 µM | OVCAR-4 > 51.9 µM | OVCAR-5 > 100 µM | RPMI-8226 > 100 µM | RXF 393 > 100 µM | SK-OV-3 > 44.1 µM | SN12C > 100 µM | SNB-19 > 100 µM | SW-620 > 46.5 µM

COC(=O)C(Cc1c[nH]c2ccccc12)NC(=O)C(Cc1c[nH]c2ccccc12)NC(=O)C(Cc1c[nH]c2ccccc12)NC(=O)C(Cc1c[nH]c2ccccc12)NC(=O)OC(C)(C)C (stereo unspecified) (Boc-WWWW-OMe; configuration not given here)
inactive: CCRF-CEM 3.78 µM | DU-145 43.2 µM | HCT-116 13.9 µM | HL-60 6.34 µM | HOP-62 25.6 µM | K562 4.8 µM | MDA-MB-231 > 100 µM | Malme-3M 69.8 µM | NCI-H226 45.7 µM | NCI-H23 25.1 µM | OVCAR-4 48.5 µM | OVCAR-5 > 100 µM | RPMI-8226 3.95 µM | SN12C > 100 µM | SNB-19 31.9 µM | SW-620 6.07 µM
